Data on 15 compounds can be found in patent US8008311B2, “Methods and compostions utilizing quinazolinones” (Cytokinetics, Inc., priority 2003, dated 2011).

Data set [1] addresses T1, KSP motor domain (Homo sapiens, UniProt P52732).
T1 construct: 100 nM KSP motor domain, 50 μg/ml microtubules
T1 sequence (P52732 18-359 limits assumed): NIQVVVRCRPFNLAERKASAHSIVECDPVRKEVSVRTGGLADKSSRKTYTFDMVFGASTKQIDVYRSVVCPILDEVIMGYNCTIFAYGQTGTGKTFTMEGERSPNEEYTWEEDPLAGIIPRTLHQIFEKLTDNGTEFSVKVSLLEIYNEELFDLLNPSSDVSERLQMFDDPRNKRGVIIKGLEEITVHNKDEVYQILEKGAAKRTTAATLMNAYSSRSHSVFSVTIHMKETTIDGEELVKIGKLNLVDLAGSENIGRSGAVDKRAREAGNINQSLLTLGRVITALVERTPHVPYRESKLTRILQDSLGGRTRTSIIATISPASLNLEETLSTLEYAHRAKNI
Description: KSP ATPase assay (IC50 / Ki). The data set is classed as biochemical. The conditions noted are these: for Ki: synthesized as single enantiomer. As to the method: One measure of inhibition is IC50, defined as the concentration of the composition at which the activity of KSP is decreased by fifty percent. Preferred compositions have IC50's of less than about 1 mM, with preferred embodiments having IC50's of less than about 100 μM, with more preferred embodiments having IC50's of less than about 10 μM, with particularly preferred embodiments having IC50's of less than about 1 μM, and especially preferred embodiments having IC50's of less than about 100 nM, and with the most preferred embodiments having IC50's of less than about 10 nM. Measurement of IC50 is done using an ATPase assay.
The Ki for a compound is determined from the IC50 based on three assumptions. First, only one compound molecule binds to the enzyme and there is no cooperativity. […] Third, the enzymatic rate of the enzyme-inhibitor complex is zero. The rate (i.e., compound concentration) data are fitted to the equation: […]
Where V is the observed rate, Vmax is the rate of the free enzyme, I0 is the inhibitor concentration, E0 is the enzyme concentration, and Kd is the dissociation constant of the enzyme-inhibitor complex.
Measurement of a composition's IC50 for KSP activity uses an ATPase assay. The following solutions are used: Solution 1 consists of 3 mM phosphoenolpyruvate potassium salt (Sigma P-7127), 2 mM ATP (Sigma A-3377), 1 mM IDTT (Sigma D-9779), 5 μM paclitaxel (Sigma T-7402), 10 ppm antifoam 289 (Sigma A-8436), 25 mM Pipes/KOH pH 6.8 (Sigma P6757), 2 mM MgC12 (VWR JT400301), and 1 mM EGTA (Sigma E3889). Solution 2 consists of 1 mM NADH (Sigma N8129), 0.2 mg/ml BSA (Sigma A7906), pyruvate kinase 7 U/ml, L-lactate dehydrogenase 10 U/ml (Sigma P0294), 100 nM KSP motor domain, 50 μg/ml microtubules, 1 mM DTT (Sigma D9779), 5 μM paclitaxel (Sigma T-7402), 10 ppm antifoam 289 (Sigma A-8436), 25 mM Pipes/KOH pH 6.8 (Sigma P6757), 2 mM MgC12 (VWR JT4003-01), and 1 mM EGTA (Sigma E3889). Serial dilutions (8-12 two-fold dilutions) of the composition are made in a 96-well microtiter plate (Corning Costar 3695) using Solution 1. Following serial dilution each well has 50 μl of Solution 1. The reaction is started by adding 50 μl of solution 2 to each well. This may be done with a multichannel pipettor either manually or with automated liquid handling devices. The microtiter plate is then transferred to a microplate absorbance reader and multiple absorbance readings at 340 nm are taken for each well in a kinetic mode. The observed rate of change, which is proportional to the ATPase rate, is then plotted as a function of the compound concentration. For a standard IC50 determination the data acquired is fit by the following four parameter equation using a nonlinear fitting program (e.g., Grafit 4): […]
Where y is the observed rate and x the compound concentration.

Data set [2] has as its system A549 cells. The conditions noted are these: cited from earlier work.
Data set [3] concerns SKOV3 tumor xenograft. As to the kind of experiment: SKOV3 tumor xenograft in nude mice. It is filed as in vivo.
For data set [4], the system named is SKOV3 tumor xenograft. As to the kind of experiment: SKOV3 tumor xenograft in nude mice. It is filed as in vivo. To be noted: for Mice with Partial Tumor Shrinkage / Mortalities: 8 mice at start. As to the method: Female nude mice weighing approximately 20 g were implanted s.c. by trocar with fragments of human tumor carcinomas harvested from s.c. growing tumors in nude mice host. When the tumors were approximately 77 mg in size, the animals were pair matched into treatment and control groups. Each group contained 8 tumored mice, each of which was ear-tagged and followed individually throughout the experiment. Initial doses (10 mL/kg of a 66 mM Citrate buffer, pH 5.0/0.9% Saline/10% Tween 80 formulation of each test compound having a maximum concentration of 5 mg/mL) were given on Day 1 following pair matching, dosing at the levels and schedules indicated.
Mice were weighed twice weekly, and tumor measurements were taken by calipers twice weekly, starting on Day 1. These tumor measurements were converted to mg tumor weight by a well-known formula, W^2×L/2. The experiment was terminated when the control group tumor size reached an average of 1 gram. Upon termination, the mice were weighted, sacrificed and their tumors excised. Tumors were weighted and the mean treated tumor weight per group was calculated. In this model, the change in mean treated tumor weight/the change in mean control tumor weight×100% (ΔT/ΔC) was subtracted from 100% to give the tumor growth inhibition (TGI) for each group.

The subject of data set [5] is Skov-3 cells (human ovarian cancer). As to the kind of experiment: FACS analysis of cell cycle stage by DNA content. To be noted: 24 hours; 10 nM paclitaxel, 400 nM quinazolinone 1, 200 nM quinazolinone 2. It is filed as cell-based. As to the method:
FACS analysis to determine cell cycle stage by measuring DNA content was performed as follows. Skov-3 cells (human ovarian cancer) were split 1:10 for plating in 10 cm dishes and grown to subconfluence with RPMI 1640 medium containing 5% fetal bovine serum (FBS). The cells were then treated with either 10 nM paclitaxel, 400 nM quinazolinone 1, 200 nM quinazolinone 2, or 0.25% DMSO (vehicle for compounds) for 24 hours. Cells were then rinsed off the plates with PBS containing 5 mM EDTA, pelleted, washed once in PBS containing 1% FCS, and then fixed overnight in 85% ethanol at 4° C. Before analysis, the cells were pelleted, washed once, and stained in a solution of 10 μg propidium iodide and 250 μg of ribonuclease (RNAse) A per milliliter at 37° C. for half an hour. Flow cytometry analysis was performed on a Becton-Dickinson FACScan, and data from 10,000 cells per sample was analyzed with Modfit software.
(In flow cytometry, cells or beads pass a laser one at a time.)

The mark [6] stands for this setting: R enantiomer, read-out: Ki (μM) R enantiomer.
The mark [7] stands for this setting: S enantiomer, read-out: Ki (μM) S enantiomer.
The mark [8] stands for this setting: enantiomer 1 from chiral chromatography, read-out: IC50 (μM) Enantiomer 1.
[9] abbreviates: enantiomer 2 from chiral chromatography, read-out: IC50 (μM) Enantiomer 2.
Setting [10] is: racemate, read-out: IC50 (μM) Racemate.
Setting [11] is: 80 mg/kg every 3 days × 4, i.v.
Where [12] appears, read: 50 mg/kg every 3 days × 4, i.v.
Setting [13] is: 20 mg/kg daily × 5, i.p., Tables A-D.

“And” between values parts separate entries of the source, which are not always exact repeats. Identical values can stand only once. Like-named read-outs stand apart in the source and are kept apart here.

As usually defined, the Ki is the equilibrium dissociation constant of an inhibitor or competing ligand from its target. The term GI50 denotes the concentration that inhibits growth by half.

With `CC(c1nc2ccccc2c(=O)n1Cc1ccccc1)N(CCN)C(=O)c1ccc(Br)cc1` (centres unmarked), the figures for the Ki in data set [1] (setting [6]) and in data set [1] (setting [7]) were under 0.1 µM and 2 µM, respectively.
For `CCC(c1nc2cc(Cl)ccc2c(=O)n1Cc1ccccc1)N(CCN)C(=O)c1ccc(Br)cc1` (centres unmarked), the Ki in data set [1] (setting [6]) was under 0.05 µM; in data set [1] (setting [7]), over 0.5 µM.
With `CCC(c1nc2cc(Cl)ccc2c(=O)n1Cc1ccccc1)N(CCCN)C(=O)c1ccc(C)cc1` (racemic), the IC50 in data set [1] (R isomer, read-out: R Isomer IC50) is under 0.05 µM; in data set [1] (S isomer, read-out: S Isomer IC50), over 0.5 µM; in data set [1] (racemic, read-out: Racemic I C50), under 0.05 µM.
Turning to `CCC(c1nc2ccccc2c(=O)n1Cc1ccccc1)N(CCN(C)C)C(=O)c1ccc(Br)cc1` (single isomer, unassigned), the IC50 in data set [1] (setting [8]) was found to be 0.28 µM; in data set [1] (setting [9]), 0.03 µM; in data set [1] (setting [10]), 0.06 µM.
For `CCC(c1nc2ccccc2c(=O)n1Cc1ccccc1)N(CCN(C)C)C(=O)c1cccc2ccccc12` (single isomer, unassigned) the same measures were over 40 µM, 6.6 µM and 12.7 µM.
`CC(c1nc2ccccc2c(=O)n1Cc1ccccc1)N(CCN(C)C)C(=O)c1ccc(Br)cc1` (single isomer, unassigned): the IC50 is over 40 µM in data set [1] (setting [8]), 1.3 µM in data set [1] (setting [9]) and 2.6 µM in data set [1] (setting [10]).
Regarding `O=c1[nH]cc(F)c(=O)[nH]1` [5-fluorouracil], the GI50 in data set [2] is 1000 nM.
Take `CCC(c1nc2cc(Cl)ccc2c(=O)n1Cc1ccccc1)N(CCCN)Cc1ccc(Br)cc1` (centres unmarked) [Compound 1]: the “Final Tumor Weight (Mean ± SEM)” value in data set [3] (setting [11]) is 554.3 ± 76.8 mg. In data set [4] (setting [11]), the “Maximum Weight Loss” value is “None”, the “Tumor Growth Inhibition” value amounted to 41.5%, the “Mice with Partial Tumor Shrinkage” value is recorded as 0 and the Mortalities worked out at 1.
`CCC(c1nc2cc(F)ccc2c(=O)n1Cc1ccccc1)N(CCCN)C(=O)c1ccc(C)cc1` (centres unmarked) [Compound 2]: in data set [4] (setting [12]), the “Final Tumor Weight (Mean ± SEM)” value is reported as 340.8 ± 93.0 mg, the “Maximum Weight Loss” value is listed as “None”, the “Tumor Growth Inhibition” value stood at 81.5% and the “Mice with Partial Tumor Shrinkage” value is reported as 0. This compound gave a Mortalities in data set [4] (setting [12]) of 0.
Regarding `CCC(c1nc2cc(Cl)ccc2c(=O)n1Cc1ccccc1)N(CC1CNC1)C(=O)c1ccc(C)cc1` (centres unmarked) [Compound 3], the “Final Tumor Weight (Mean ± SEM)” value in data set [3] (60 mg/kg daily × 5, i.v.) turned out to be 806.1 ± 163.8 mg. In data set [4] (60 mg/kg daily × 5, i.v.), the “Maximum Weight Loss” value was 2.76%, the “Tumor Growth Inhibition” value amounted to 48.3%, the “Mice with Partial Tumor Shrinkage” value worked out at 0 and the Mortalities was 1.
As for `CCC(c1nc2cc(Cl)ccc2c(=O)n1Cc1ccccc1)N(CCN)Cc1ccc(C)cc1` (centres unmarked) [Compound 4], in data set [4] (4 mg/kg weekly × 3, i.v.), the “Final Tumor Weight (Mean ± SEM)” value came out at 726.9 ± 147.2 mg, the “Maximum Weight Loss” value was 0.02%, the “Tumor Growth Inhibition” value was found to be 40.1% and the “Mice with Partial Tumor Shrinkage” value is 0. The same compound displayed a Mortalities in data set [4] (4 mg/kg weekly × 3, i.v.) of 1.
In the case of `CCC(c1nc2cc(Cl)ccc2c(=O)n1Cc1ccccc1)N(CCCN(C)C)C(=O)c1ccc(Br)cc1` (centres unmarked) [Compound 5], in data set [4] (25 mg/kg daily × 5, i.v.), the “Final Tumor Weight (Mean ± SEM)” value is recorded as 405.6 ± 124.8 mg, the “Maximum Weight Loss” value is recorded as “None”, the “Mean % Tumor Shrinkage” value turned out to be 56.3% and the “Tumor Growth Inhibition” value is recorded as 71.0%. For the same compound, in data set [4] (25 mg/kg daily × 5, i.v.), the “Mice with Partial Tumor Shrinkage” value is listed as 1 and the Mortalities is 0.
For the compound `CC(=O)O[C@H]1C(=O)[C@@]2(C)[C@H]([C@H](OC(=O)c3ccccc3)[C@]3(O)C[C@H](OC(=O)[C@H](O)[C@@H](NC(=O)c4ccccc4)c4ccccc4)C(C)=C1C3(C)C)[C@]1(OC(C)=O)CO[C@@H]1C[C@@H]2O` [Taxol, paclitaxel, reference compound], the GI50 in data set [2] is 4 nM. Besides, in data set [4] (setting [13]), the “Maximum Weight Loss” value was 16.5% and 7.49% and 12.26% and 8.77%; the “Mean % Tumor Shrinkage” value is 27.9% and 43.5% and 44.4%. In addition, in data set [4] (20 mg/kg daily × 5, i.p., separate experiments Tables A-D), the “Tumor Growth Inhibition” value was 91.7% and 99.7% and 87.1% and 73.0%. Further, the “shift of cell cycle stage (DNA content)” value in data set [5] is reported as “caused a shift in the population of cells from a G0/G1 cell cycle stage (2n DNA content) to a G2/M cell cycle stage (4n DNA content)”.
With `COc1cccc2c1C(=O)c1c(O)c3c(c(O)c1C2=O)C[C@@](O)(C(=O)CO)C[C@@H]3O[C@H]1C[C@H](N)[C@H](O)[C@H](C)O1` [doxorubicin], the GI50 in data set [2] was 63 nM.
Regarding `NC(=O)NO` [hydroxyurea], the GI50 in data set [2] was 500000 nM.
